Experimental data taken from patent US4382888A, “Tryptophan derivative and process for production thereof” (Ajinomoto Company Incorporated, priority 1978, dated 1983).

Columns and labels:
thermolysin = thermolysin (Bacillus thermoproteolyticus, UniProt P00800); experiment: inhibitory activity against thermolysin (casein digestion, Folin reagent); type: biochemical, genus Bacillus
Experimental: (§1) A mixture of 0.25 ml of sample solution in 0.05 M phosphate buffer at pH 7.5 and 0.25 ml of thermolysin solution (20 μg/ml in the same buffer was incubated for 10 minutes at 37° C. The mixture was added with 1.5 ml of 1.33% Hammarsten casein solution in 0.1M phosphate buffer (pH 7.0) and incubated for 10 minutes at 37° C. By the addition of 2 ml of 0.44 M trichloroacetic acid the reaction was stopped. After standing for 30 minutes at 37° C., the reaction mixture was filtered. To 1.0 ml of the filtrate 5 ml of 0.55 M Na2 CO3 and 1 ml of 2 times diluted Folin-Ciocaltean reagent were added. After standing for 60 minutes at 37° C., the absorbance (Is) was measured at 660 mμ. The blank value (Ib) was taken by carrying out the reaction using 0.25 ml of 0.05M phosphate buffer (pH 7.5) instead of thermolysin. […] Inhibition rate against enzyme activity is calculated by the following equation: [formula] Now, inhibitory activity against metallo proteinase produced by Pseudomonas aeruginosa can be measured in the same manner as above wherein amounts of enzyme used is established so as to have following value. A value of (Es-Eb) according to method for measuring inhibitory activity is 0.6 wherein cell length used for the measurement of absorbance is 1 cm.

[1] = test system: metallo proteinase produced by Pseudomonas aeruginosa; experiment: inhibitory activity against metallo proteinase of Pseudomonas aeruginosa (casein digestion); type: biochemical
Experimental: as §1

[2] = test system: metallo proteinase produced by Aspergillus oryzae; experiment: inhibitory activity against metallo proteinase of Aspergillus oryzae; type: biochemical
pepsin = pepsin (Sus scrofa, UniProt P00791); experiment: inhibitory activity against pepsin; type: biochemical
pepsin, sequence (P00791 60-385): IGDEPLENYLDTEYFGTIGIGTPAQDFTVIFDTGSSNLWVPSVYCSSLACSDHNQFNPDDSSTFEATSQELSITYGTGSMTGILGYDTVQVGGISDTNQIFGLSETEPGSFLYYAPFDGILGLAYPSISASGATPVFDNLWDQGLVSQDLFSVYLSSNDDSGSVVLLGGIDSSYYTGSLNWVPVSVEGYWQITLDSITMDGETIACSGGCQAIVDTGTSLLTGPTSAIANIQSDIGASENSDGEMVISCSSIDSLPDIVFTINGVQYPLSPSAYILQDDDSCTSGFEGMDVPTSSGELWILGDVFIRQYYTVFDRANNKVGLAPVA

trypsin = molecular target: T1, trypsin (Bos taurus, UniProt P00760); experiment: inhibitory activity against trypsin; type: biochemical
T1 sequence (P00760 24-246): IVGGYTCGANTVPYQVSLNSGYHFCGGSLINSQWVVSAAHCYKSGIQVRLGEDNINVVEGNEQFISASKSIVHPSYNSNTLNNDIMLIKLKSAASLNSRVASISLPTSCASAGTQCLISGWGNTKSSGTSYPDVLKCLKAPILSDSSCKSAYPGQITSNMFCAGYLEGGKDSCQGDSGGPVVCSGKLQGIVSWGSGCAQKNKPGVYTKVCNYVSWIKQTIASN

chymotrypsin = chymotrypsin (Bos taurus, UniProt P00766); experiment: inhibitory activity against chymotrypsin; type: biochemical
subtilis = experiment: inhibitory activity against subtilis; type: biochemical
papain = molecular target: T2, papain (Carica papaya, UniProt P00784); experiment: inhibitory activity against papain; type: biochemical
T2 sequence (P00784 134-345): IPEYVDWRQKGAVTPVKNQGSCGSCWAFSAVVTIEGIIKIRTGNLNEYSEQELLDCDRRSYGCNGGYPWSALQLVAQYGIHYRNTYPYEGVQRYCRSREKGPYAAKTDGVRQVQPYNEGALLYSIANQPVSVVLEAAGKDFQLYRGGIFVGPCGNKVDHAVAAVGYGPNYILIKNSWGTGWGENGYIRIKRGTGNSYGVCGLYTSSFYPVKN

Solubility = type: physicochemical
[3] = Stability in aqueous solution; type: physicochemical
[4] = amount of compound in the assay

thermolysin, sequence (P00800 233-548): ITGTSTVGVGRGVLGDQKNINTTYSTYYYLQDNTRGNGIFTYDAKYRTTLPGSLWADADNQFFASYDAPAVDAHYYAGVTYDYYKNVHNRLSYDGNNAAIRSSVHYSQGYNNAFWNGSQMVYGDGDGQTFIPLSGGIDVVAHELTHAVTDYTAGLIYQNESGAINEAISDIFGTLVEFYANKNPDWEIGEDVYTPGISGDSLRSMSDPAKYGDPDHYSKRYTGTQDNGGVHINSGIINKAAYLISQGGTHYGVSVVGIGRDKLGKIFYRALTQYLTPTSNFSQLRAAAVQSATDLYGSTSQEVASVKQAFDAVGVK

## CC(C)C[C@H](NP(=O)(O)OC1O[C@@H](C)[C@@H](O)[C@@H](O)[C@H]1O)C(=O)N[C@@H](Cc1c[nH]c2ccccc12)C(=O)O (stereo partly drawn) [novel tryptophan derivative, N-(6-deoxy-L-talosyloxy hydroxyphosphinyl)-L-leucyl-L-tryptophan]
thermolysin
  inhibiting activity (in words): strongly inhibits
thermolysin; [4]
  Amount necessary for inhibiting 50% of the enzyme activity: 0.35 µg
[1]
  inhibiting activity (in words): strongly inhibits
[1]; [4]
  Amount necessary for inhibiting 50% of the enzyme activity: 4 µg
[2]
  inhibiting activity (in words): inhibits
pepsin
  inhibiting activity (in words): does not inhibit
trypsin
  inhibiting activity (in words): does not inhibit
chymotrypsin
  inhibiting activity (in words): does not inhibit
subtilis
  inhibiting activity (in words): does not inhibit
papain
  inhibiting activity (in words): does not inhibit
Solubility; benzene
  Solubility: Insoluble
Solubility; chloroform
  Solubility: Insoluble
Solubility; ethanol
  Solubility: Soluble
Solubility; ether
  Solubility: Insoluble
Solubility; hexane
  Solubility: Insoluble
Solubility; methanol
  Solubility: Soluble
Solubility; water
  Solubility: Soluble
[3]; acidic aqueous solution
  Stability: Unstable
[3]; standing for 24 hours at pH 1
  Stability (remaining activity): Activity is lost completely
[3]; weak acidic, neutral, or alkaline aqueous solution
  Stability: Stable
